Read-outs that look alike come from different tables or passages of the source.
Experiments:
SARS-CoV-2 [1] = type: in vivo, human
[2] = relapsing MS patients; cited from earlier work
[3] = mouse model of RA, orally administered; cited from earlier work
[4] = mouse model of SLE, orally administered; cited from earlier work
SARS-CoV-2 [5] = tested on: SARS-CoV-2
Source text: The clinical study NCT02975349 is a phase II, randomized, placebo-controlled trial to evaluate the safety and efficacy of evobrutinib (M2951) in subjects with relapsing multiple sclerosis (RMS). […] The study was composed of a screening period of 4 weeks, a double blinded treatment period of 48 weeks, with an optional open-label extension (OLE) period of 312 weeks, and a safety follow-up period of 4 weeks post-treatment.
Patients were randomized 1:1:1:1: to receive placebo, oral evobrutinib 25 mg once-daily (QD), 75 mg QD, 75 mg twice-daily (BID), or open-label dimethyl fumarate. Patients who received placebo during the first 24 weeks of the DBP, were switched to evobrutinib 25 mg QD until the end of the double-blind period (i.e., 48 weeks). Patients participating in the OLE after the DBP received EVO 75 mg QD and then, after a mean of 49.8 weeks, switched to EVO 75 mg BID.
For the analysis of pre-vaccination, post-vaccination and post-booster vaccination S1/S2 IgG antibody levels, plasma samples were selected according to the following criteria: • Pre-vaccination: sample taken at the last doctor's visit of the patient before the date when the first COVID-19 vaccine dose was administered • post-vaccination: sample taken at the first doctor's visit of the patient that took place at least 28 days after a complete vaccination cycle (as defined by the manufacturer) was administered (for example, in case of the mRNA COVID vaccine of VAC-OLE I, at least 28 days after the date when the second dose of the mRNA COVID vaccine was administered) • post-booster vaccination: sample taken in the first doctor's visit of the patients that took place at least 7 days after the date when the booster vaccination was administered
A total of 24 patients, fulfilling the following criteria, were included in the analysis and constituted the VAC-OLE I analysis set: • Subjects who were in the OLE and received evobrutinib 75 mg BID, and • had 2 doses of mRNA vaccine against COVID reported as concomitant medication, and • signed the Informed Consent for the vaccination analysis.
Subjects were administered the two doses of vaccine during the course of the study based on investigator's judgement. Of the 24 vaccinated patients: • 20 received the mRNA vaccine by BioNTech/Pfizer • 4 patients received the mRNA vaccine by Moderna.
SARS-CoV-2 antibody levels were determined using the LIAISON® SARS-CoV-2 S1/S2 IgG assay (DiaSorin, Inc); an indirect sandwich chemiluminescent immunoassay that qualitatively detects IgG antibodies to SARS-CoV-2. […] Briefly, magnetic particles coated with recombinant S1 and S2 SARS-CoV-2 proteins were incubated with patients' plasma samples, calibrator samples or control samples. After washing away unbound material, a mouse monoclonal anti-human IgG antibody linked to an isoluminol derivative was added. Following another incubation and wash step, the starter reagents were added triggering a flash chemiluminescence reaction. The resulting light signal, representative of the amount of bound isoluminol-antibody conjugate, was measured by a photo multiplier as relative light units (RLU) and was indicative of the presence of IgG S1/S2 antibodies to SARS-CoV-2 virus. Test results are assessed qualitatively as positive or negative. The lower limit of quantification (LLoQ) in this assay was 3.8 AU/mL. In line with FDA guidance, values below a cutoff of 15 AU/mL (i.e. about 4× above the LLoQ for the assay) were considered as a negative readout.
The primary endpoint of this study was defined as fold changes in levels of S1/S2 IgG antibodies from pre- to post-vaccination.

SARS-CoV-2 [6] = details: MS patients, 2 to 4 weeks after second dose of mRNA COVID-19 vaccine; cited from earlier work
[7] = all participants (N=45), VAC-OLE II, evobrutinib 75 mg BID
[8] = booster subgroup (N=14), mRNA booster, VAC-OLE II
[9] = participants that received mRNA vaccines (37), VAC-OLE II
[10] = participants that received non-mRNA vaccines (8), VAC-OLE II
[11] = seronegative subgroup (N=32), VAC-OLE II
[12] = seropositive subgroup (N=13), VAC-OLE II
[13] = overall VAC-OLE I population (N=24), evobrutinib 75 mg BID
[14] = seronegative subgroup (19 patients), VAC-OLE I
[15] = seropositive subgroup (5 patients), VAC-OLE I

C=CC(=O)N1CCC(CNc2ncnc(N)c2-c2ccc(Oc3ccccc3)cc2)CC1 [evobrutinib, 1-[4-({[6-amino-5-(4-phenoxyphenyl)pyrimidin-4-yl]amino}methyl)piperidin-1-yl]prop-2-en-1-one]
participants with >30-fold induction of S1/S2 IgG antibody levels (SARS-CoV-2 [1]; 21 of 45 participants, VAC-OLE II): 47% | participants with >10-fold increase of S1/S2 IgG antibody levels (SARS-CoV-2 [1]; 38 of 45 participants, VAC-OLE II): 84% | S1/S2 IgG antibody geometric mean post-vaccination (SARS-CoV-2 [1]; <8 weeks subgroup, VAC-OLE II): 672 AU/mL | participants with >30-fold change in antibody levels after vaccination (SARS-CoV-2 [1]; >8 and ≤12 weeks subgroup (7 of 19), VAC-OLE II): 37% | S1/S2 IgG antibody geometric mean post-vaccination (SARS-CoV-2 [1]; >8 week to ≤12 weeks subgroup, VAC-OLE II): 166 AU/mL | participants with >30-fold change in antibody levels after vaccination (SARS-CoV-2 [1]; >12 weeks group (2/13), VAC-OLE II): 15% | S1/S2 IgG antibody geometric mean post-vaccination (SARS-CoV-2 [1]; >12 weeks subgroup, VAC-OLE II): 142 AU/mL | fold increase in anti-COVID-19 antibody levels pre- to post-vaccination (SARS-CoV-2 [1]; all participants (N=45), VAC-OLE II): 45 fold | S1/S2 IgG antibody level after a complete vaccination cycle, geometric mean (SARS-CoV-2 [1]; [7]): 237.8 AU/mL | S1/S2 IgG antibody level pre-vaccination, geometric mean (SARS-CoV-2 [1]; [7]): 9.0 AU/mL | fold change in the geometric mean of S1/S2 IgG antibody (SARS-CoV-2 [1]; assessed >8 week to ≤12 weeks after complete vaccination cycle, VAC-OLE II): 17.7 | fold change in the geometric mean of S1/S2 IgG antibody (SARS-CoV-2 [1]; assessed >12 weeks after complete vaccination cycle, VAC-OLE II): 17.8 | fold change in the geometric mean of S1/S2 IgG antibody (SARS-CoV-2 [1]; assessed ≤8 weeks after complete vaccination cycle, VAC-OLE II): 69.7 | S1/S2 IgG antibody levels after booster vaccination compared to levels after the complete vaccination cycle (SARS-CoV-2 [1]; booster subgroup (N=14), VAC-OLE II): Higher | geometric mean fold change from post-vaccination to post-booster (SARS-CoV-2 [1]; [8]): 6.3 | geometric mean fold change from pre-vaccination to post-booster (SARS-CoV-2 [1]; [8]): 214 | response to COVID vaccination compared with individuals not under BTK inhibitor treatment (SARS-CoV-2 [1]; conclusion of Example 2, comparison with published data): comparably to healthy individuals | post-vaccination S1/S2 IgG antibody geometric mean (SARS-CoV-2 [1]; [9]): 247.7 AU/mL | pre-vaccination S1/S2 IgG antibody geometric mean (SARS-CoV-2 [1]; [9]): 8.5 AU/mL | post-vaccination S1/S2 IgG antibody geometric mean (SARS-CoV-2 [1]; [10]): 197.1 AU/mL | pre-vaccination S1/S2 IgG antibody geometric mean (SARS-CoV-2 [1]; [10]): 12.1 AU/mL | S1/S2 IgG antibody post-vaccination geometric mean level (SARS-CoV-2 [1]; [11]): 133.6 AU/mL | S1/S2 IgG antibody values prior to vaccination (majority of participants, lower limit of quantification) (SARS-CoV-2 [1]; [11]): 3.8 AU/mL | S1/S2 IgG antibody geometric mean level after a complete vaccination cycle (SARS-CoV-2 [1]; [12]): 984.4 AU/mL | S1/S2 IgG antibody pre-vaccination geometric mean level (SARS-CoV-2 [1]; [12]): 55.5 AU/mL | results in RMS phase II trials [2]: positive results | efficacy (reduction of disease severity and histological damage) [3]: good efficacy | efficacy (reduction of disease severity and histological damage) [4]: good efficacy | S1/S2 IgG antibody level, geometric mean, after second vaccination (SARS-CoV-2 [5]; [13]): 209.1 AU/mL | S1/S2 IgG antibody level, geometric mean, before first vaccination (SARS-CoV-2 [5]; [13]): 6.7 AU/mL | S1/S2 IgG antibody level post-vaccination, geometric mean (SARS-CoV-2 [5]; sample collected >12 weeks after second vaccination, VAC-OLE I): 74 | S1/S2 IgG antibody level post-vaccination, geometric mean (SARS-CoV-2 [5]; sample collected between 8 and 12 weeks after second dose, VAC-OLE I): 264 | S1/S2 IgG antibody level post-vaccination, geometric mean (SARS-CoV-2 [5]; sample collected less or equal to 8 weeks after second vaccination, VAC-OLE I): 383 AU/mL | geometric mean fold change of S1/S2 IgG antibody levels (SARS-CoV-2 [5]; seronegative patients, VAC-OLE I): 36.0 | S1/S2 IgG antibody level prior to vaccination (majority of patients, lower limit of quantification) (SARS-CoV-2 [5]; [14]): around 3.8 AU/ml | S1/S2 IgG antibody level, geometric mean post-vaccination (SARS-CoV-2 [5]; [14]): 155.8 AU/mL | geometric mean fold change of S1/S2 IgG antibody levels (SARS-CoV-2 [5]; seropositive patients, VAC-OLE I): 18.0 | S1/S2 IgG antibody level, geometric mean after the second vaccination (SARS-CoV-2 [5]; [15]): 639.6 AU/mL | S1/S2 IgG antibody level, geometric mean pre-vaccination (SARS-CoV-2 [5]; [15]): 35.5 AU/mL

C=CC(=O)N1CCC[C@@H](n2c(=O)n(-c3ccc(Oc4ccccc4)cc3)c3c(N)nccc32)C1 [tolebrutinib, reference compound]
results in RMS phase II trials [2]: positive results

ocrelizumab: B and/or T cell receptor directed antibody; a disease modifying treatment for multiple sclerosis
S1/S2 IgG antibody levels (SARS-CoV-2 [6]): very low

Source: patent US20260000669A1, “TREATMENT REGIMEN FOR AUTOIMMUNE DISEASES AND INFLAMMATORY DISEASES” (Merck Patent GmbH, priority 2022, published 2026)
